# Test results as given in patent US20250101077A1, “PEPTIDES AND PHARMACEUTICAL COMPOSITION FOR THE TREATMENT OF TUMOURS” (UNIVERSIDAD DE SALAMANCA, priority 2022, published 2025).
# How the values were obtained:
# c-Src [1] = molecular target: T1, c-Src (Homo sapiens, UniProt P12931); assay: Pull-down of biotinylated peptides with NeutrAvidin beads, Western blot; type: binding; set-up: the cells were lysed and biotinylated peptides attached to their intracellular partners were pulled down with NeutrAvidin beads; endogenous in cells; host or cells: human E22 glioblastoma stem cells; details: 50 μM biotinylated peptide, 30 min, E22 glioblastoma stem cells, FIG. 9
# Experimental: (§1) FIG. 9. Intracellular interactions of biotinylated TAT-Cx43266-283, TAT-Cx43266-283C/A and TAT-Cx43266-275 in human glioblastoma stem cells. Human E22 glioblastoma stem cells were incubated with 50 μM biotinylated TAT-Cx43266-283, TAT-Cx43266-283C/A and TAT-Cx43266-275. After 30 min the cells were lysed and biotinylated peptides attached to their intracellular partners were pulled down with NeutrAvidin beads. The eluted proteins were loaded and analyzed by Western blot to study the levels of c-Src, Y416-Src, and Csk.
# Pulldown experiments were performed as described in González-Sánchez A. et al., Oncotarget, 7(31):49819-49833 (2016); Jaraiz-Rodriguez M. et al., J Vis Exp. (130):56457 (2017)). Confluent cells grown in 25 cm^2 flasks were incubated with 50 μM biotinylated peptides for 30 min. Proteins were then collected in 0.5 ml of lysis buffer (20 mM Tris-HCl (pH 8.0), 137 mM NaCl, 1% IGEPAL, 1 mM PMSF, protease cocktail (1:100; Cocktail Ill, Calbiochem), 1 mM NaF and 0.1 mM Na3VO4). Lysates were centrifuged at 11000×g for 10 minutes at 4° C., and the supernatants were recovered. A 50-μl aliquot of each lysate was used to analyze the protein content, and the remaining lysate was incubated with NeutrAvidin-Agarose (Thermo Scientific, Rockford, IL, USA; Ref. 29200) for 12 h at 4° C. with gentle shaking. The avidin beads bound with the peptides were collected by centrifugation (3000×g for 1 minutes at 4° C.). The beads were then washed five times with lysis buffer, and the bound proteins were eluted and analyzed by Western blotting under denaturing and reducing contidions. The membranes were blocked with 5% non-fat dry milk in PBS-T and then incubated overnight at 4° C. with the primary antibodies against rabbit CSK (1:250; Cell Signaling Technology, Ref. 4980), rabbit Y416 Src (1:250, Cell Signaling Technology, Ref. 2101) and mouse total c-Src (1:500, Cell Signaling Technology, Ref. 2110). […]
# Y416-Src = molecular target: T2, Y416-Src (Homo sapiens, UniProt P12931); assay: as above; type: binding; details: 50 μM biotinylated peptide, 30 min, E22 glioblastoma stem cells, FIG. 9
# T2 construct: endogenous in cells; host or cells: human E22 glioblastoma stem cells
# Experimental: as §1
# (§2) Pulldown experiments were performed as described in González-Sánchez A. et al., Oncotarget, 7(31):49819-49833 (2016); Jaraiz-Rodriguez M. et al., J Vis Exp. (130):56457 (2017)). Confluent cells grown in 25 cm^2 flasks were incubated with 50 μM biotinylated peptides for 30 min. Proteins were then collected in 0.5 ml of lysis buffer (20 mM Tris-HCl (pH 8.0), 137 mM NaCl, 1% IGEPAL, 1 mM PMSF, protease cocktail (1:100; Cocktail Ill, Calbiochem), 1 mM NaF and 0.1 mM Na3VO4). Lysates were centrifuged at 11000×g for 10 minutes at 4° C., and the supernatants were recovered. A 50-μl aliquot of each lysate was used to analyze the protein content, and the remaining lysate was incubated with NeutrAvidin-Agarose (Thermo Scientific, Rockford, IL, USA; Ref. 29200) for 12 h at 4° C. with gentle shaking. The avidin beads bound with the peptides were collected by centrifugation (3000×g for 1 minutes at 4° C.). The beads were then washed five times with lysis buffer, and the bound proteins were eluted and analyzed by Western blotting under denaturing and reducing contidions. The membranes were blocked with 5% non-fat dry milk in PBS-T and then incubated overnight at 4° C. with the primary antibodies against rabbit CSK (1:250; Cell Signaling Technology, Ref. 4980), rabbit Y416 Src (1:250, Cell Signaling Technology, Ref. 2101) and mouse total c-Src (1:500, Cell Signaling Technology, Ref. 2110). To detect biotinylated peptides, the membranes were incubated with HRP-conjugated streptavidin in PBS (1:5000; Dako Ref.P0397) for 30 minutes and then developed with a chemiluminescent substrate.
# Csk = molecular target: T3, Csk (Homo sapiens, UniProt P41240); assay: as above; type: binding; details: 50 μM biotinylated peptide, 30 min, E22 glioblastoma stem cells, FIG. 9
# T3 construct: endogenous in cells; host or cells: human E22 glioblastoma stem cells
# T3 sequence (P41240 whole entry): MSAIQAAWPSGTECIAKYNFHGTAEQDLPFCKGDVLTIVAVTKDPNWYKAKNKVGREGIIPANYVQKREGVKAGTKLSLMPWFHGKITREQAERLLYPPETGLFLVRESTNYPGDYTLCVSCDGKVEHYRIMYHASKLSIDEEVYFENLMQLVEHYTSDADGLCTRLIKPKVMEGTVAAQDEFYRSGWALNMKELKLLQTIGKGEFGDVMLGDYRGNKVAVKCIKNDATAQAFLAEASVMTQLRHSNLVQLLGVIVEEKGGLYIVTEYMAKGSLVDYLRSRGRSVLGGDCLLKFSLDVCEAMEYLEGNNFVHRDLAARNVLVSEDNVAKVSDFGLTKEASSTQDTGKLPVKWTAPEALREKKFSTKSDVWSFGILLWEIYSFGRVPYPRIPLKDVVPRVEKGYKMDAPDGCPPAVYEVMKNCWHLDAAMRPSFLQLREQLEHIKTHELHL
# Experimental: as §1, §2
# [2] = test system: G166 human glioblastoma stem cells; assay: Migration by live cell microscope videos; type: cell-based; details: 50 μM, frames every 100 minutes, FIG. 7
# Experimental: FIG. 7. Representative images of the effect of Cx43-based penetrating peptides on the migration of human glioblastoma stem cells. G166 human glioblastoma stem cells were treated in the absence (control) or presence of TAT-Cx43266-283 or TAT-Cx43266-275, both at a concentration of 50 μM. Phase-contrast videos of the cells were made using a live cell microscope. Shown are 3 representative frames taken every 100 minutes of the cells in the control condition, TAT-Cx43266-283 and TAT-Cx43266-275. 3 cells in each condition have been selected and numbered.
# Migration is the cause of these tumour cells invading the surrounding parenchyma, escaping surgery and causing the recurrence of these tumours, which is the main cause of mortality.
# [3] = test system: human glioblastoma stem cells; assay: Internalisation of biotin-fused peptides; type: cell-based; details: peptides fused to biotin
# Experimental: (§3) Different peptides based on the 266-283 sequence of Cx43 fused to TAT at its N-terminal end were used, all at a concentration of 50 μM, in culture medium and their effect was analysed at different treatment times. In parallel, these cells were analysed in the absence of treatment (control), in the presence of the antitumour peptide TAT-Cx43266-283 ([…]; corresponding to the peptide described in patent WO2014191608 A1 linked to the cell internalisation sequence TAT; SEQ ID NO: 35) and in the presence of the peptides without antitumour activity, TAT (YGRKKRRQRRR; SEQ ID NO: 7) and TAT-Cx43274-291 (YGRKKRRQRRR PTAPLSPMSPPGYKLVTG; SEQ ID NO: 26). For pull-down assays and visualization the peptides were fused to biotin via a C-terminal lysine.
# albumin = albumin (Homo sapiens, UniProt P02768); assay: Albumin binding by Western blot under native or denaturing and reducing conditions; details: 2.5 μM biotinylated peptide plus 0.1% (w/v) albumin in PBS, native conditions, FIG. 8
# Experimental: FIG. 8. TAT-Cx43266-283 and TAT-Cx43266-275 bind to albumin via a cysteine dependent mechanism. TAT, TAT-Cx43274-291, TAT-Cx43266-283, TAT-Cx43266-283F/A, TAT-Cx43266-283C/A and TAT-Cx43266-275 were fused to biotin to allow their analysis by Western blot. Solutions of each peptide plus albumin in PBS were analyzed in native (N) or denaturing and reducing conditions (DR) to identify their interaction with albumin. […] Note that the sensitivity of the Ponceau staining was not enough to detect the peptide at about 10 kDa, therefore only albumin bands are shown. […] Note that TAT-Cx43266-283 and TAT-Cx43266-275 appear bound to albumin under native conditions while denaturation and reduction promoted the release of these peptides.
# Western blotting was performed as described previously (Jaraiz-Rodriguez, M. et al., Neuro-Oncology, 22, 493-504 (2020)). Briefly, 2.5 μM biotinylated peptides plus 0.1% (w/v) albumin in PBS were analysed by Western blot under native (N) or denaturing and reducing (DR) conditions. For native conditions, samples were analysed without further treatment. For denaturing and reducing conditions samples were treated with 0.1 M β-mercaptoethanol and 4% SDS and heated at 99° C. for 5 min. Samples were subjected to electrophoresis on NuPAGE Novex Bis-Tris 4-12% Midi gels (Life Technologies) at room temperature and constant voltage. Proteins were transferred to a nitrocellulose membrane (iBlot Gel Transfer Stacks Nitrocellulose) using an iBlot dry blotting system (Life Technologies). Membranes were incubated with Ponceau S staining solution for protein staining in red. After washing the membranes were blocked with 5% non-fat dry milk in PBS and then incubated with HRP-Streptavidin (1:5000; Dako P0397) for 30 minutes at room temperature. After extensive washing, the membranes were developed with a chemiluminescent substrate (Western Blotting Luminol Reagent; Santa Cruz Biotechnology) in a MicroChemi imaging system (Bioimaging Systems).
# [4] = test system: G166 human glioblastoma stem cells; assay: MTT colour viability test and phase-contrast images; type: cell-based; details: 50 μM; for proliferation and survival of human glioblastoma stem cells: phase-contrast images at 48h and MTT at 0, 24, 48 and 72h, FIGS. 5 and 6; for morphology and viability of glioblastoma stem cells (MTT assay): FIG. 1
# Experimental: The human glioblastoma stem cell line G166 was obtained from Biorep, deposited and characterised in Pollard et al., Cell Stem Cell. 4(6):568-80 (2009). The human glioblastoma stem cell line E22 was also obtained from Pollard lab (U. Edinburgh).
# In all these cases, cells were cultured in neurobasal culture medium supplemented with 2% B27, 1% N2, 20 ng/mL EGF and 20 ng/mL bFGF, in laminin-coated culture plates, to generate adherent cell cultures. Thanks to their self-renewal capacity, when these cells are expanded in adherent cultures under these culture conditions, they maintain the above-mentioned properties, i.e. the characteristic glioblastoma stem cell phenotype and genotype, including their tumourigenicity, for more than 20 passages.
# as §3
# For this study, cells were seeded at low density and the number of viable cells was determined at different days of treatment. For this purpose, the medium was removed and the cells were incubated with 300 μL of PBS in the presence of MTT (0.5 mg/mL) for 75 minutes in the dark at 37° C. in a CO2 incubator. The medium was then removed, and 500 μL of DMSO was added. The cells were shaken in the dark for 10 minutes. Finally, absorbance was determined at 570 nm.
# [5] = test system: human and mouse glioblastoma stem cells; details: in vitro and in vivo, from cited publications; cited from earlier work
# c-Src [6] = molecular target: T1, c-Src; details: from cited publications; cited from earlier work
sequence,measurement,setting,value
YGRKKRRQRRRAYFNGCSSPT [TAT-Cx43266-275],intracellular interaction with c-Src,c-Src [1],interact preferentially
same,intracellular interaction with Y416-Src,Y416-Src,interact preferentially
same,intracellular interaction with Csk,Csk,interact preferentially
same,migration of human glioblastoma stem cells,[2],reduces the migration
same,internalisation in human glioblastoma stem cells,[3],able to be internalised
same,binding to albumin,albumin,bind to albumin under native conditions
same,anti-tumour effect compared with the other peptides (MTT assay),"[4]; 0-72h, FIG. 6",significantly higher than the rest of the peptides
same,proliferation and survival of human glioblastoma stem cells,[4],reduce proliferation and survival
YGRKKRRQRRRAYFNGCSSPTAP [TAT-Cx43266-277],internalisation in human glioblastoma stem cells,[3],able to be internalised
same,proliferation and survival of human glioblastoma stem cells,[4],reduce proliferation and survival
YGRKKRRQRRRAYFNGCSSPTAPLSPM [TAT-Cx43266-281],internalisation in human glioblastoma stem cells,[3],able to be internalised
same,proliferation and survival of human glioblastoma stem cells,[4],reduce proliferation and survival
"YGRKKRRQRRR PTAPLSPMSPPGYKLVTG (YGRKKRRQRRRPTAPLSPMSPPGYKLVTG) [TAT-Cx43274-291, reference compound]",proliferation and survival of human glioblastoma stem cells,[4],do not produce significant effects
YGRKKRRQRRRAYFNGCSSPTAPLS [TAT-Cx43266-279],internalisation in human glioblastoma stem cells,[3],able to be internalised
same,proliferation and survival of human glioblastoma stem cells,[4],reduce proliferation and survival
YGRKKRRQRRRCSSPTAPLSPMSPPGYK [TAT-Cx43271-287],glioblastoma stem cell survival and proliferation (MTT assay),"[4]; 72h, FIG. 2",slightly reduces glioblastoma stem cell proliferation
YGRKKRRQRRRFNGCSSPTAPLSPMSP [TAT-Cx43268-283],ability to reduce proliferation (MTT assay),"[4]; 72h, FIG. 3",less ability to reduce proliferation than TAT-Cx43266-283
YGRKKRRQRRRAYFNGASSPTAPLSPMSP [TAT-Cx43266-283 C/A],intracellular interaction with c-Src,c-Src [1],did not show significant interactions
same,intracellular interaction with Y416-Src,Y416-Src,did not show significant interactions
same,intracellular interaction with Csk,Csk,did not show significant interactions
same,binding to albumin,albumin,disrupted albumin-peptide interaction
same,morphology and viability of glioblastoma stem cells (MTT assay),[4]; 48h,very similar to that of untreated (control) cells
"YGRKKRRQRRR (Cell internalisation sequence) [TAT, reference compound]",proliferation and survival of human glioblastoma stem cells,[4],do not produce significant effects
"YGRKKRRQRRRAYFNGCSSPTAPLSPMSP [TAT-Cx43266-283, reference compound]",intracellular interaction with c-Src,c-Src [1],interact preferentially
same,intracellular interaction with Y416-Src,Y416-Src,interact preferentially
same,intracellular interaction with Csk,Csk,interact preferentially
same,antitumour effect,[5],potent antitumour effect
same,migration of human glioblastoma stem cells,[2],reduces the migration
same,internalisation in human glioblastoma stem cells,[3],able to be internalised
same,binding to albumin,albumin,bind to albumin under native conditions
same,morphology and viability of glioblastoma stem cells (MTT assay),[4]; 48h,significantly reduces the viability
same,proliferation and survival of human glioblastoma stem cells,[4],reduce proliferation and survival
same,c-Src activity,c-Src [6],inhibit c-Src activity
YGRKKRRQRRRAYANGCSSPTAPLSPMSP [TAT-Cx43266-283 F/A],binding to albumin,albumin,did not affect the interaction with albumin
same,tumour cell morphology and viability (MTT assay),"[4]; 48h, FIG. 4","affects tumour cell morphology and viability, but to a much lesser extent"
